This is an account of results in patent US20260223841A1 (priority 2023, published 2026).

Series [1] deals with Xylella fastidiosa subsp. multiplex IVIA5901. Briefly: microbe, parasite or virus in culture. Particulars: 0.5 h, read-out: minimum bactericidal concentration (MBC). It counts as cell-based.
The test system of series [2] is Xylella fastidiosa subsp. pauca DeDonno. In words: microbe, parasite or virus in culture. It counts as cell-based. The note with it: 0.5 h, read-out: minimum bactericidal concentration (MBC).
The test system of another series is Erwinia amylovora EPS101. Type of series: cell-based.
Series [3] concerns Xylella fastidiosa subsp. fastidiosa IVIA5387.2. It counts as in vivo, Prunus dulcis. Particulars: 33 mg/ml trunk microinjection, 2 mg/plant, preventive + curative.
For series [4], the system named is Liberibacter crescens strain BT-1 (cultured surrogate for Candidatus Liberibacter spp.). Particulars: 100 and 250 μg/ml; 30 or 120 minutes of contact.
For series [5], the system named is Xylella fastidiosa subsp. fastidiosa IVIA5387.2.
Series [6] concerns Liberibacter crescens strain BT-1 (cultured surrogate for Candidatus Liberibacter spp.). Briefly: microbe, parasite or virus in culture. Particulars: 0.5 h, read-out: minimum bactericidal concentration (MBC).
Series [7] relates to Xylella fastidiosa subsp. fastidiosa IVIA5387.2. In words: microbe, parasite or virus in culture. The note with it: 0.5 h, read-out: minimum bactericidal concentration (MBC).
[8] abbreviates: 50 μg/ml, after 30 min of contact.
Where [9] appears, read: 50 μg/ml, after 120 min of contact.

SMILES strings stand for the structures. Read-outs that look alike come from different tables or passages of the source.

With `CCCCCCCCCCCC(=O)OCC(O)CO` (stereo not shown) [Compound of formula (I), 2,3-dihydroxypropyl dodecanoate], the MBC in series [1] was under 250 µg/mL; in series [2], under 250 µg/mL; in series [6], under 100 µg/mL; in series [7], about 50 µg/mL. For the same compound, in the series with Erwinia amylovora EPS101, the “bactericidal effect (bacterial growing, not quantitative)” value is given as “no bactericidal effect”. In addition, the “severity scale score (almond leaf scorch, 0-5)” value was determined as 0.11 in series [3] (55 days after infection); 0.44 in series [3] (62 days after infection); 0.42 in series [3] (82 days after infection); 1.17 in series [3] (115 days after infection); 2.33 in series [3] (140 days after infection). Further, the “mortality (no growth observed)” value in series [4] is recorded as “about 100%”; in series [5] (100 and 75 μg/ml, 30 or 120 minutes of contact), “about 100%”. For the same compound, the survival entry in series [5] (setting [8]) is “about 27.6%”; in series [5] (setting [9]), about 23.1%. The “survival (log CFU/ml)” value in series [5] (setting [8]) is 2.26 log CFU/ml. Also, the “survival (Log CFU/ml)” value in series [5] (setting [9]) came out at 1.87 Log CFU/ml.
